These are literature values, as cited in patent US11512314B2, “Amphiphilic polynucleotides” (Duke University, priority 2019, dated 2022).

The target in data set [1] is prostate-specific membrane antigen (PSMA) (Homo sapiens, UniProt Q04609). The note with it: binding to PSMA.
For data set [2] the following is noted: free 5FU, reported value.
The conditions of data set [3]: small molecule drug.

Where two headings read alike, the source gives them in different places.

prostate-specific membrane antigen (PSMA), sequence (Q04609 whole entry): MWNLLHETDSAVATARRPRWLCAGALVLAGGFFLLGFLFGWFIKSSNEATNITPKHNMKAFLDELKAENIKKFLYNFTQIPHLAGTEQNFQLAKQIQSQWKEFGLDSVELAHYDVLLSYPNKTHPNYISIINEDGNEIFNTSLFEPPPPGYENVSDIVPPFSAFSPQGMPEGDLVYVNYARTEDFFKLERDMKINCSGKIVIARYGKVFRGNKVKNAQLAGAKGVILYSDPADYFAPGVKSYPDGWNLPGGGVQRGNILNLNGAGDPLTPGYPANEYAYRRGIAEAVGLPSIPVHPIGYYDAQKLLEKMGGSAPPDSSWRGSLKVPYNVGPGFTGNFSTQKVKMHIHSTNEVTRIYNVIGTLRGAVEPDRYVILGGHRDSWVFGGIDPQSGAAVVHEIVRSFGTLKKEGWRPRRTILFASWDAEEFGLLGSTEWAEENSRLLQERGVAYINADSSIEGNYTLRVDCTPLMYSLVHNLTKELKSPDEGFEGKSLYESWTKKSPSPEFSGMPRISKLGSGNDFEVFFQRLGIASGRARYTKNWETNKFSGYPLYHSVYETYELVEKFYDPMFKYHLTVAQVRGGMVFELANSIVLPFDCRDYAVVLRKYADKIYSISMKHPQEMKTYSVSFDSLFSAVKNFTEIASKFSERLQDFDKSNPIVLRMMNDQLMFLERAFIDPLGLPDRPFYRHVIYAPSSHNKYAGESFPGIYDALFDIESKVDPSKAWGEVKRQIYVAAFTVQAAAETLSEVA

As for “5′-GGGAGGACGAUGCGGAUCAGCCAUGUUUACGUCACUCCU-3′ (listed as RNA, chemistry not given here) [A10]”, in data set [1], the Kd (usually the equilibrium constant for the complex coming apart) was 2.1 nM.
Regarding `O=c1[nH]cc(F)c(=O)[nH]1` [5FU], the figures for the “reported MTD” value in data set [2] and in data set [2] (listed as 5-FU) were 15 to 20 mg/kg and 20 mg/kg, respectively. In addition, the half-life (as a rule, the time in which the quantity being followed falls by half) in data set [3] is 8 to 14 min.
